Laboratory results from patent US20070060621A1, “Methods and compositions for the administration of prodrugs of proton pump inhibitors” (priority 2004, published 2007).

Key:
Assay type in all cases: physicochemical
[1] = Hygroscopicity of compound 1 on storage
Experimental: The physicochemical properties of compound 1 were analyzed.

[2] = Stability profile at 25° C. in buffered aqueous solutions
From the text: The base-catalyzed degradation is unexpected because the commercial proton pump inhibitors are stabilized in aqueous solutions by adjusting the solution to high pH.

[3] = Stability of compound 1 at 0.02 mg/mL at 25° C. in water, NaCl salt and phosphate buffer; conditions: for % Remaining: 25° C., 0.02 mg/mL; for Half Life (t½) / Rate Constant (k) / Shelf life (t90%): first order decay from 3-29 days
Experimental: FIG. 1 is a plot of the % of the original concentration of compound remaining over time. The original concentration of compound 1 was 0.02 mg/mL, and stability was assessed at 25° C. in 1) water, 2) NaCl salt (μ=0.15), 3) NaCl salt (μ=0.5), 4) phosphate buffer (pH 7.0, μ=0.15), and 5) phosphate buffer (pH 7.0, μ=0.5).
FIG. 2 is a log plot of the data of FIG. 1.
The stability of compound 1 at a concentration of 0.02 mg/mL in water at 25° C. was assessed in 1) water, 2) NaCl salt (μ=0.15), 3) NaCl salt (μ=0.5), 4) phosphate buffer (pH 7.0, μ=0.15), and 5) phosphate buffer (pH 7.0, μ=0.5). For the buffer solutions, the ionic strength (μ) was adjusted using sodium chloride, and the buffer concentration of the two solutions was equal (0.1 M). The amount of remaining compound 1 is presented as the % of the original concentration of 0.02 mg/mL for each sample in Table 3a and in FIG. 1.

[4] = pH 3, Citric Acid (0.1 M)/Na2HPO4 (0.2 M)
[5] = pH 5, Citric Acid (0.1 M)/Na2HPO4 (0.2 M)
[6] = pH 7, sodium phosphate (0.1-0.2 M)
[7] = pH 7.4, sodium phosphate (0.1-0.2 M)
[8] = pH 9, sodium phosphate (0.1-0.2 M)
[9] = pH 10, sodium phosphate (0.1-0.2 M)
[10] = Na phosphate buffer, u = 0.15, pH 7.0, 25° C.
[11] = Na phosphate buffer, u = 0.5, pH 7.0, 25° C.

COc1ccc2c(c1)nc([S+]([O-])Cc1ncc(C)c(OC)c1C)n2S(=O)(=O)c1ccc(OCC(=O)O)cc1 (centres unmarked) [Compound 1]
hygroscopicity ([1]; 14 days of storage at 25° C. at 75% relative humidity): hygroscopic
weight gain ([1]; after 14 days of storage at 25° C. at 75% relative humidity): 9%
Degradation Rate Constant (k) ([2]; No buffer): 0.0002 h⁻¹
Half-life (t1/2) ([2]; No buffer): 119.32 days
Shelf life (t90%) ([2]; No buffer): 435.4 h
Degradation Rate Constant (k) ([2]; pH 1, 0.1 M HCl): 0.194 h⁻¹
Half-life (t1/2) ([2]; pH 1, 0.1 M HCl): 0.15 days
Shelf life (t90%) ([2]; pH 1, 0.1 M HCl): 0.5 h
Degradation Rate Constant (k) [2, 4]: 0.009 h⁻¹
Half-life (t1/2) [2, 4]: 3.25 days
Shelf life (t90%) [2, 4]: 11.9 h
Degradation Rate Constant (k) [2, 5]: 0.008 h⁻¹
Half-life (t1/2) [2, 5]: 3.72 days
Shelf life (t90%) [2, 5]: 13.6 h
Degradation Rate Constant (k) [2, 6]: 0.002 h⁻¹
Half-life (t1/2) [2, 6]: 11.95 days
Shelf life (t90%) [2, 6]: 43.6 h
Degradation Rate Constant (k) [2, 7]: 0.002 h⁻¹
Half-life (t1/2) [2, 7]: 12.13 days
Shelf life (t90%) [2, 7]: 44.3 h
Degradation Rate Constant (k) [2, 8]: 0.030 h⁻¹
Half-life (t1/2) [2, 8]: 0.958 days
Shelf life (t90%) [2, 8]: 3.5 h
Degradation Rate Constant (k) [2, 9]: 0.298 h⁻¹
Half-life (t1/2) [2, 9]: 0.0958 days
Shelf life (t90%) [2, 9]: 0.4 h
% Remaining ([3]; Day 1, NaCL, u = 0.15 (pH 6.6)): 84.134%
% Remaining ([3]; Day 1, NaCL, u = 0.5 (pH 6.2)): 87.598%
% Remaining ([3]; Day 1, Phosphate buffer, u = 0.15 (pH 7.0)): 96.294%
% Remaining ([3]; Day 1, Phosphate buffer, u = 0.5 (pH 7.0)): 96.709%
% Remaining ([3]; Day 1, Water (pH 7.2)): 92.212%
% Remaining ([3]; Day 3, NaCL, u = 0.15 (pH 6.6)): 76.960%
% Remaining ([3]; Day 3, NaCL, u = 0.5 (pH 6.2)): 80.750%
% Remaining ([3]; Day 3, Phosphate buffer, u = 0.15 (pH 7.0)): 90.597%
% Remaining ([3]; Day 3, Phosphate buffer, u = 0.5 (pH 7.0)): 90.087%
% Remaining ([3]; Day 3, Water (pH 7.2)): 86.085%
% Remaining ([3]; Day 4, NaCL, u = 0.15 (pH 6.6)): 77.037%
% Remaining ([3]; Day 4, NaCL, u = 0.5 (pH 6.2)): 78.348%
% Remaining ([3]; Day 4, Phosphate buffer, u = 0.15 (pH 7.0)): 87.434%
% Remaining ([3]; Day 4, Phosphate buffer, u = 0.5 (pH 7.0)): 85.994%
% Remaining ([3]; Day 4, Water (pH 7.2)): 86.410%
% Remaining ([3]; Day 7, NaCL, u = 0.15 (pH 6.6)): 75.398%
% Remaining ([3]; Day 7, NaCL, u = 0.5 (pH 6.2)): 76.513%
% Remaining ([3]; Day 7, Phosphate buffer, u = 0.15 (pH 7.0)): 80.995%
% Remaining ([3]; Day 7, Phosphate buffer, u = 0.5 (pH 7.0)): 76.165%
% Remaining ([3]; Day 7, Water (pH 7.2)): 84.569%
% Remaining ([3]; Day 9, NaCL, u = 0.15 (pH 6.6)): 71.861%
% Remaining ([3]; Day 9, NaCL, u = 0.5 (pH 6.2)): 74.482%
% Remaining ([3]; Day 9, Phosphate buffer, u = 0.15 (pH 7.0)): 76.176%
% Remaining ([3]; Day 9, Phosphate buffer, u = 0.5 (pH 7.0)): 70.768%
% Remaining ([3]; Day 9, Water (pH 7.2)): 84.452%
% Remaining ([3]; Day 11, NaCL, u = 0.15 (pH 6.6)): 73.763%
% Remaining ([3]; Day 11, NaCL, u = 0.5 (pH 6.2)): 74.312%
% Remaining ([3]; Day 11, Phosphate buffer, u = 0.15 (pH 7.0)): 74.520%
% Remaining ([3]; Day 11, Phosphate buffer, u = 0.5 (pH 7.0)): 67.826%
% Remaining ([3]; Day 11, Water (pH 7.2)): 86.930%
% Remaining ([3]; Day 13, NaCL, u = 0.15 (pH 6.6)): 72.390%
% Remaining ([3]; Day 13, NaCL, u = 0.5 (pH 6.2)): 71.691%
% Remaining ([3]; Day 13, Phosphate buffer, u = 0.15 (pH 7.0)): 68.020%
% Remaining ([3]; Day 13, Water (pH 7.2)): 83.661%
% Remaining ([3]; Day 15, NaCL, u = 0.15 (pH 6.6)): 67.858%
% Remaining ([3]; Day 15, NaCL, u = 0.5 (pH 6.2)): 68.167%
% Remaining ([3]; Day 15, Phosphate buffer, u = 0.15 (pH 7.0)): 62.389%
% Remaining ([3]; Day 15, Phosphate buffer, u = 0.5 (pH 7.0)): 52.494%
% Remaining ([3]; Day 15, Water (pH 7.2)): 80.913%
% Remaining ([3]; Day 20, NaCL, u = 0.15 (pH 6.6)): 64.953%
% Remaining ([3]; Day 20, NaCL, u = 0.5 (pH 6.2)): 65.173%
% Remaining ([3]; Day 20, Phosphate buffer, u = 0.15 (pH 7.0)): 54.360%
% Remaining ([3]; Day 20, Phosphate buffer, u = 0.5 (pH 7.0)): 44.057%
% Remaining ([3]; Day 20, Water (pH 7.2)): 78.768%
% Remaining ([3]; Day 24, NaCL, u = 0.15 (pH 6.6)): 64.848%
% Remaining ([3]; Day 24, NaCL, u = 0.5 (pH 6.2)): 65.753%
% Remaining ([3]; Day 24, Phosphate buffer, u = 0.15 (pH 7.0)): 50.246%
% Remaining ([3]; Day 24, Phosphate buffer, u = 0.5 (pH 7.0)): 39.181%
% Remaining ([3]; Day 24, Water (pH 7.2)): 79.915%
% Remaining ([3]; Day 29, NaCL, u = 0.15 (pH 6.6)): 62.731%
% Remaining ([3]; Day 29, NaCL, u = 0.5 (pH 6.2)): 62.867%
% Remaining ([3]; Day 29, Phosphate buffer, u = 0.15 (pH 7.0)): 43.321%
% Remaining ([3]; Day 29, Phosphate buffer, u = 0.5 (pH 7.0)): 32.626%
% Remaining ([3]; Day 29, Water (pH 7.2)): 78.412%
Half Life (t½) [3, 10]: 24.063 days
Rate Constant (k) [3, 10]: 0.0288 day⁻¹
Shelf life (t90%) [3, 10]: 3.658 days
Half Life (t½) [3, 11]: 17.589 days
Rate Constant (k) [3, 11]: 0.0394 day⁻¹
Shelf life (t90%) [3, 11]: 2.674 days
Half Life (t½) ([3]; NaCl, u = 0.15, pH 6.6, 25° C.): 80.581 days
Rate Constant (k) ([3]; NaCl, u = 0.15, pH 6.6, 25° C.): 0.0086 day⁻¹
Shelf life (t90%) ([3]; NaCl, u = 0.15, pH 6.6, 25° C.): 12.251 days
Half Life (t½) ([3]; NaCl, u = 0.5, pH 6.6, 25° C.): 75.326 days
Rate Constant (k) ([3]; NaCl, u = 0.5, pH 6.6, 25° C.): 0.0092 day⁻¹
Shelf life (t90%) ([3]; NaCl, u = 0.5, pH 6.6, 25° C.): 11.452 days
Half Life (t½) ([3]; water, pH 7.2, 25° C.): 161.163 days
Rate Constant (k) ([3]; water, pH 7.2, 25° C.): 0.0043 day⁻¹
Shelf life (t90%) ([3]; water, pH 7.2, 25° C.): 24.502 days
